{"source": "patent US12186332B2", "about": "“Methods for overcoming WNT/beta-catenin anti-cancer resistance in leukemia stem cells” (STOWERS INSTITUTE FOR MEDICAL RESEARCH, priority 2019, dated 2025)", "key": {"[1]": {"test_system": "β-catenin binding of the Cd24a gene locus", "assay": "ChIP-qPCR in Ctnnb1-3xFlag mouse ES cells", "format": "cell-based", "conditions": "4 hours", "procedure": "The Ctnnb1-3×Flag mouse ES cell line was provided by Andrew McMahon (University of Southern California) and routinely passaged and maintained on irradiated MEF feeder in conventional ES cell medium supplemented with […] and […] Hygromycin B. Cells were adapted and expanded to serum free 2i culture for experiments. For serum-free 2i culture, ES cells were cultured without serum in the N2B27 medium: neurobasal medium(Invitrogen 21103-049), DMEM/F12 (Invitrogen 10565-018), 0.5×N2 (Invitrogen 17502-048), 0.5×B27 (Invitrogen 17504044), 1×b-mercaptoethanol(Millipore ES-007-E), 2 mM Lglutamine(Invitrogen 25030081), […] non-essential amino acid(NEAA)(SCT 07600), 0.033% BSA(Invitrogen 15260037), […] CHIRON(Tocris 4423), […] PD03 (SCT72184).\nA total of 2×10^7 ES cells were used per ChIP assay. Cells were washed with 1×PBS and crosslinked with 1% paraformaldehyde for 10 min at RT and quenched with 1 ml 2.5M glycine. Cells were washed with cold PBS three times and resuspended in […] lysis buffer (15 mM HEPES at pH 7.5, 140 mM NaCl, 1 mM EDTA, 0.5 mM EGTA, 1% Triton X100, 0.1% sodium deoxycholate, 1% SDS, 0.5% N-lauroylsarcosine). […] ChIP-qPCR was performed with Fast SYBR™ Green Master Mix (Thermo Fisher Scientific 4385612) and analyzed with the Student's t-test."}, "[2]": {"test_system": "LSCs and HSPCs transcriptome", "assay": "RNA-seq of populations sorted from treated leukemic mice", "format": "in vivo, mouse", "procedure": "HSPCs, LSCs, and blast cells were sorted by FACS at […] post-treatment of leukemic mice; representative sorting gates are shown. Note distinct LSC population (compare to isotype) in vehicle versus low-dose DXR+chemotherapy treatment when LSCs show very low frequency. Other plots are from vehicle control. To obtain sufficient cells from the clinical DXR sample, the 5×4 […] DXR daily dosing schedule was used.\nData from two biological replicates of each, differing by <0.3 standard deviations, are shown.\nCohorts of leukemic mice were treated with vehicle, chemotherapy, [Low]DXR, clinical-dose DXR or chemotherapy+[Low]DXR as in FIG. 8. At 10 days post-treatment (day 1=start of treatment), blast cells, LSCs, and HSPCs were sorted using stringent gates (see FIG. 4A) for these populations. For each population, two biological replicates were made with 1-3 technical replicates each. Each biological replicate was a pool of sorted cells from 4-5 male and 4-5 female mice. Technical replicates were samples of sorted cells from each biological replicate. 1,000 cells per sample were sorted into 96-well plates with 7 μl lysis buffer containing RNase inhibitor (2 U/μl) from BM. First-strand cDNA synthesis and cDNA libraries were constructed using the SMARTer ultra low input RNA kit for sequencing—v3 (Clontech) following the manufacturer's instructions. cDNA quality was determined by Agilent high sensitivity DNA kit on Agilent 2100 BioAnalyzer (Agilent Technologies). Libraries were sequenced at 50 bp on the Illumina HiSeq 2500. Reads were aligned to UCSC mm10 with Tophat 2.1.1 (Kim et al. 2013), using gene models from Ensembl 80. Read counts per gene were obtained with HTSeq-count 0.6.0 (Anders et al. 2015). Analysis was done in R with the EdgeR package (Robinson et al. 2010) using default methods. […] Data can be accessed at https://www.ncbi.nlm.nih.qov/geo/query/acc.cqi?acc=GSE105049."}, "[3]": {"test_system": "PD-L1, TIM-3 and CD24 on LSCs", "assay": "FACS of immune checkpoints on LSCs", "format": "in vivo, mouse", "conditions": "3 days post-treatment", "excerpt": "Frequency in BM (top) and frequency of the indicated immune checkpoint within the LSC population (bottom) are shown."}, "[4]": {"test_system": "LSCs and blast cells of leukemia mice", "assay": "Immune-checkpoint blocker treatment / CD8+ T cell depletion in leukemia mice", "format": "in vivo, mouse", "conditions": "[Low]DXR after anti-CD8 depletion", "procedure": "For immune-checkpoint blocker treatment, 250 μg anti-PD-1 or isotype control (BioXcell) was injected intravenously every other day for a total of 3 injections. For CD8^+ T cell depletion, 2×100 μg and 1×250 μg of anti-CD8a or isotype control (BioXcell) was injected intravenously every other day."}, "[5]": {"test_system": "functional, tumorigenic LSCs", "assay": "Tumorigenic assay: BM of treated leukemic mice transplanted into NSG recipients", "format": "in vivo, mouse", "conditions": "[Low]DXR alone; nearly 6 months post-transplant", "quoted_text": "At 12 days post-treatment, BM was harvested from treated mice and transplanted into sub-lethally irradiated NSG recipients. Treatment and transplantation schematic and Kaplan-Meier curves of recipient mice were shown. Red arrow indicates day 0 in survival curve.\nThe free [Low]DXR treatment group (solid line) from FIG. 5F is shown for comparison (n=30 per group).\nTumorigenic assays were performed by transplanting 0.5, 1.5, or 4.5×10^4 bone marrow cells from treated mice at 12 days post-treatment into 3.25 Gy irradiated NSG recipient mice. 10 recipients were used for each dose from each group. One male and one female donor was used for each group. Leukemia was assessed in mice euthanized due to poor health by analyzing CD45^HiCD^3+ cell frequency. Mice having >20% Blasts in the bone marrow were considered leukemic. NSG and Ptprc mice were originally obtained from The Jackson Laboratory."}, "CD8^+ T cells": {"test_system": "CD8^+ T cells", "assay": "FACS of peripheral blood CD8+ T cells in leukemic mice", "format": "in vivo, mouse", "conditions": "48 hrs post-treatment"}}}
{"smiles": "COc1cccc2c1C(=O)c1c(O)c3c(c(O)c1C2=O)C[C@@](O)(C(=O)CO)C[C@@H]3O[C@H]1C[C@H](N)[C@H](O)[C@H](C)O1", "note": "[DXR, doxorubicin]", "values": [{"measurement": "β-catenin binding of the Cd24 promoter region", "setting": "[1]; high-dose DXR (3 μM)", "value": "partially reversed"}, {"measurement": "β-catenin binding of the Cd24 promoter region", "setting": "[1]; low-dose DXR (30 nM)", "value": "essentially abolished"}, {"measurement": "Hallmark MYC targets in LSCs", "setting": "[2]; [Low]DXR", "value": "reduced"}, {"measurement": "most highly enriched terms in LSCs compared to control or chemotherapy", "setting": "[2]; [Low]DXR", "value": "upregulation of immune-related terms"}, {"measurement": "expression of resistance pathways, LSCs versus HSPCs", "setting": "[2]; clinical DXR", "value": "increased expression of oncogenic signaling and other resistance pathways"}, {"measurement": "LSC populations expressing PD-L1 and CD24", "setting": "[3]; [Low]DXR", "value": "reduced"}, {"measurement": "TIM-3+ LSCs", "setting": "[3]; [Low]DXR", "value": "reduced"}, {"measurement": "LSC populations expressing PD-L1 and CD24", "setting": "[3]; clinical-dose DXR", "value": "this reduction was reversed"}, {"measurement": "TIM-3+ LSCs", "setting": "[3]; clinical-dose DXR", "value": "increased substantially"}, {"measurement": "effect on LSCs after CD8+ T cell depletion", "setting": "[4]", "value": "no longer significantly reduced LSCs"}, {"measurement": "recipients that remained healthy", "setting": "[5]", "value": "27/30"}, {"measurement": "CD8+ T cells in peripheral blood", "setting": "CD8^+ T cells; [Low]DXR", "value": "significant increase"}, {"measurement": "CD8+ T cells in peripheral blood", "setting": "CD8^+ T cells; clinical-dose DXR", "value": "significant reduction"}]}
